From patent US9073873B2, “2-heterocyclylaminoalkyl-(p-quinone) derivatives for treatment of oxidative stress diseases” (Edison Pharmaceuticals, Inc., priority 2008, dated 2015)

Tests used:
Assay type in all cases: cell-based
[1] = system: human dermal fibroblasts from LHON patients; test: Rescue of fibroblasts from LHON patients from oxidative stress; settings: Fibroblast, LHON cells GM03858, read-out: protection against LHON, EC50
Protocol: (§1) An initial screen was performed to identify compounds effective for the amelioration of redox disorders. Test samples, 4 reference compounds (idebenone, decylubiquinone, Trolox and α-tocopherol acetate), and solvent controls were tested for their ability to rescue FRDA fibroblasts stressed by addition of L-buthionine-(S,R)-sulfoximine (BSO), as described in Jauslin et al., Hum. Mol. Genet. 11(24):3055 (2002), Jauslin et al., FASEB J. 17:1972-4 (2003), and International Patent Application WO 2004/003565. […] This specific BSO-mediated cell death can be prevented by administration of antioxidants or molecules involved in the antioxidant pathway, such as α-tocopherol, selenium, or small molecule glutathione peroxidase mimetics. However, antioxidants differ in their potency, i.e. the concentration at which they are able to rescue BSO-stressed FRDA fibroblasts.
(§2) Test samples were screened according to the following protocol: A culture with FRDA fibroblasts was started from a 1 ml vial with approximately 500,000 cells stored in liquid nitrogen. Cells were propagated in 10 cm cell culture dishes by splitting every third day in a ratio of 1:3 until nine plates were available. Once confluent, fibroblasts were harvested. For 54 micro titer plates (96 well-MTP) a total of 14.3 million cells (passage eight) were re-suspended in 480 ml medium, corresponding to 100 μl medium with 3,000 cells/well. The remaining cells were distributed in 10 cm cell culture plates (500,000 cells/plate) for propagation. The plates were incubated overnight at 37° C. in a atmosphere with 95% humidity and 5% CO2 to allow attachment of the cells to the culture plate.
(§3) MTP medium (243 μl) was added to a well of the microtiter plate. The test compounds were unfrozen, and 7.5 μl of a 5 mM stock solution was dissolved in the well containing 243 μl medium, resulting in a 150 μM master solution. Serial dilutions from the master solution were made. The period between the single dilution steps was kept as short as possible (generally less than 1 second).
(§4) Plates were kept overnight in the cell culture incubator. The next day, 10 μl of a 10 mM BSO solution were added to the wells, resulting in a 1 mM final BSO concentration. Forty-eight hours later, three plates were examined under a phase-contrast microscope to verify that the cells in the 0% control (wells E1-H1) were clearly dead. The medium from all plates was discarded, and the remaining liquid was removed by gently tapping the plate inversed onto a paper towel.
(§5) 100 μl of PBS containing 1.2 μM Calcein AM were then added to each well. The plates were incubated for 50-70 minutes at room temperature. After that time the PBS was discarded, the plate gently tapped on a paper towel and fluorescence (excitation/emission wavelengths of 485 nm and 525 nm, respectively) was read on a Gemini fluorescence reader. Data was imported into Microsoft Excel (EXCEL is a registered trademark of Microsoft Corporation for a spreadsheet program) and used to calculate the EC50 concentration for each compound.
(§6) Compounds of the invention were tested using a screen similar to the one described in Example A, but substituting FRDA cells with Leber's Hereditary Optic Neuropathy (LHON) cells obtained from the Coriell Cell Repositories (Camden, N.J.; repository number GM03858). The compounds were tested for their ability to rescue human dermal fibroblasts from LHON patients from oxidative stress.

[2] = system: human dermal fibroblasts from CoQ10 deficient patients; test: Rescue of fibroblasts from CoQ10 deficient patients from oxidative stress; settings: Fibroblast, cells from CoQ10 deficient patients harboring a CoQ2 mutation, read-out: protection against CoQ10 deficiency, EC50
Protocol: as §1, §2, §3, §4, §5
Compounds of the invention were tested using a screen similar to the one described in Example A, but substituting FRDA cells with cells obtained from CoQ10 deficient patients harboring a CoQ2 mutation. The compounds were tested for their ability to rescue human dermal fibroblasts from CoQ10 deficient patients from oxidative stress.

[3] = system: human dermal fibroblasts from Parkinson's Disease patients; test: Rescue of fibroblasts from Parkinson's Disease patients from oxidative stress; settings: Fibroblast, PD cells AG20439, read-out: protection against PD, EC50
Protocol: as §1, §2, §3, §4, §5
as §6, with “Example A […]” for “Example”, “Parkinson's Disease (PD)” for “Leber's Hereditary Optic Neuropathy (LHON)”, “AG20439).” for “GM03858).”, “Parkinson's Disease” for “LHON”

[4] = system: Human dermal fibroblasts from Friedreich's Ataxia patients; test: Rescue of BSO-stressed FRDA fibroblasts (Calcein AM viability); settings: FRDA fibroblasts GM04078, BSO-stressed, read-out: protection against FRDA, EC50
Protocol: as §1
MEM (a medium enriched in amino acids and vitamins, catalog no. 1-31F24-I) and Medium 199 (M199, catalog no. 1-21F22-I) with Earle's Balanced Salts, without phenol red, were purchased from Bioconcept. Fetal Calf Serum was obtained from PAA Laboratories. Basic fibroblast growth factor and epidermal growth factor were purchased from PeproTech. Penicillin-streptomycin-glutamine mix, L-buthionine (S,R)-sulfoximine, (+)-α-tocopherol acetate, decylubiquinone, and insulin from bovine pancreas were purchased from Sigma. Trolox (6-Hydroxy-2,5,7,8-tetramethylchromane-2-carboxylic acid) was obtained from Fluka. Idebenone was obtained from Chemo Iberica. Calcein AM was purchased from Molecular Probes. Cell culture medium was made by combining 125 ml M199 EBS, 50 ml Fetal Calf Serum, 100 U/ml penicillin, 100 μg/ml streptomycin, 2 mM glutamine, 10 μg/ml insulin, 10 ng/ml EGF, and 10 ng/ml bFGF; MEM EBS was added to make the volume up to 500 ml. A 10 mM BSO solution was prepared by dissolving 444 mg BSO in 200 ml of medium (Invitrogen, Carlsbad, Ca.) with subsequent filter-sterilization. During the course of the experiments, this solution was stored at +4° C. The cells were obtained from the Coriell Cell Repositories (Camden, N.J.; repository number GM04078) and grown in 10 cm tissue culture plates. Every third day, they were split at a 1:3 ratio.
The test samples were supplied in 1.5 ml glass vials. The compounds were diluted with DMSO, ethanol or PBS to result in a 5 mM stock solution. Once dissolved, they were stored at −20° C. Reference antioxidants (idebenone, decylubiquinone, α-tocopherol acetate and Trolox) were dissolved in DMSO.
as §2, §3
Plates were kept overnight in the cell culture incubator. The next day, 10 μl of a 10 mM BSO solution were added to the wells, resulting in a 1 mM final BSO concentration. […]

[5] = system: human dermal fibroblasts from Huntington's patients; test: Rescue of fibroblasts from Huntington's patients from oxidative stress; settings: Fibroblast, Huntington's cells GM 04281, read-out: protection against Huntington's, EC50
Protocol: as §1, §2, §3, §4, §5
as §6, with “Huntington's” for “Leber's Hereditary Optic Neuropathy (LHON)”, “GM 04281).” for “GM03858).”, “Huntington's” for “LHON”

Measured: EC50

CC1=C(C)C(=O)C(CCNc2nccc(C(F)(F)F)n2)=C(C)C1=O [2,3,5-Trimethyl-6-(2-(4-(trifluoromethyl)pyrimidin-2-ylamino)ethyl)cyclohexa-2,5-diene-1,4-dione]
< 0.1 µM: all assays above

CC1=C(C)C(=O)C(CCNc2nccc(F)n2)=C(C)C1=O [2-(2-(4-Fluoropyrimidin-2-ylamino)ethyl)-3,5,6-trimethylcyclohexa-2,5-diene-1,4-dione]
< 0.1 µM: all assays above

CC1=C(C)C(=O)C(CCNc2cccc(C(F)(F)F)n2)=C(C)C1=O [2,3,5-Trimethyl-6-(2-(6-(trifluoromethyl)pyridin-2-ylamino)ethyl)cyclohexa-2,5-diene-1,4-dione]
< 0.1 µM: all assays above

CC1=C(C)C(=O)C(CCNc2ccc(C(F)(F)F)cn2)=C(C)C1=O [2,3,5-Trimethyl-6-(2-(5-(trifluoromethyl)pyridin-2-ylamino)ethyl)cyclohexa-2,5-diene-1,4-dione]
< 0.1 µM: all assays above

CC1=C(C)C(=O)C(CCNc2ccccn2)=C(C)C1=O [2,3,5-Trimethyl-6-(2-(pyridin-2-ylamino)ethyl)cyclohexa-2,5-diene-1,4-dione]
< 0.1 µM: all assays above

CC1=C(C)C(=O)C(CCNc2ncc(F)cn2)=C(C)C1=O [2-(2-(5-Fluoropyrimidin-2-ylamino)ethyl)-3,5,6-trimethylcyclohexa-2,5-diene-1,4-dione]
< 0.1 µM: all assays above

CC1=C(C)C(=O)C(CCNc2cc(C(F)(F)F)ccn2)=C(C)C1=O [2,3,5-Trimethyl-6-(2-(4-(trifluoromethyl)pyridin-2-ylamino)ethyl)cyclohexa-2,5-diene-1,4-dione]
< 0.1 µM: all assays above

CC1=C(C)C(=O)C(CCNc2ncccc2C(F)(F)F)=C(C)C1=O [2,3,5-Trimethyl-6-(2-(3-(trifluoromethyl)pyridin-2-ylamino)ethyl)cyclohexa-2,5-diene-1,4-dione]
< 0.1 µM: all assays above

CC1=C(C)C(=O)C(CCNc2ncccn2)=C(C)C1=O [2,3,5-Trimethyl-6-(2-(pyrimidin-2-ylamino)ethyl)cyclohexa-2,5-diene-1,4-dione]
< 0.1 µM: all assays above
